The kinase profiling compilation of Christmann-Franck et al. (2016)

Columns and labels:
Assay in all cases: KINOMEscan competition binding
Settings in all cases: compound 10.0 µM
[1] = tested on: MET (human), P08581 [M1250T]
ACVR2A (human) = ACVR2A (human) (UniProt P27037)
CDKL5 (human) = CDKL5 (human) (UniProt O76039)
HIPK2 (human) = HIPK2 (human) (UniProt Q9H2X6)
TBK1 (human) = TBK1 (human) (UniProt Q9UHD2)
DAPK3 (human) = DAPK3 (human) (UniProt O43293)
MYLK3 (human) = MYLK3 (human) (UniProt Q32MK0)
ROCK1 (human) = ROCK1 (human) (UniProt Q13464)
PRKCD (human) = PRKCD (human) (UniProt Q05655)
LATS1 (human) = LATS1 (human) (UniProt O95835)
NEK4 (human) = NEK4 (human) (UniProt P51957)
SNRK (human) = SNRK (human) (UniProt Q9NRH2)
CAMK4 (human) = CAMK4 (human) (UniProt Q16566)
STK32C (human) = STK32C (human) (UniProt Q86UX6)
DCLK1 (human) = DCLK1 (human) (UniProt O15075)
CAMK2D (human) = CAMK2D (human) (UniProt Q13557)
AURKC (human) = AURKC (human) (UniProt Q9UQB9)
CDK16 (human) = CDK16 (human) (UniProt Q00536)
[2] = tested on: PIK3CA (human), P42336 [E542K]
LTK (human) = LTK (human) (UniProt P29376)
EPHA5 (human) = EPHA5 (human) (UniProt P54756)
PIM2 (human) = PIM2 (human) (UniProt Q9P1W9)
MAP2K7 (human) = MAP2K7 (human) (UniProt O14733)
HIPK4 (human) = HIPK4 (human) (UniProt Q8NE63)
FGFR4 (human) = FGFR4 (human) (UniProt P22455)
CAMKK1 (human) = CAMKK1 (human) (UniProt Q8N5S9)
ADCK4 (human) = ADCK4 (human) (UniProt Q96D53)
CaMK1 (human) = CaMK1 (human) (UniProt Q14012)
SIK3 (human) = SIK3 (human) (UniProt Q9Y2K2)
CDK5 (human) = CDK5 (human) (UniProt Q00535)
GSK3B (human) = GSK3B (human) (UniProt P49841)
ROCK2 (human) = ROCK2 (human) (UniProt O75116)
MATK (human) = MATK (human) (UniProt P42679)
MST4 (human) = MST4 (human) (UniProt Q9P289)
MAP3K1 (human) = MAP3K1 (human) (UniProt Q13233)
EPHA6 (human) = EPHA6 (human) (UniProt Q9UF33)
FLT1 (human) = FLT1 (human) (UniProt P17948)
PTK2B (human) = PTK2B (human) (UniProt Q14289)
BTK (human) = BTK (human) (UniProt Q06187)
MAPK14 (human) = MAPK14 (human) (UniProt Q16539)

Chain of ADCK4 (human) (Q96D53 whole entry, looked up): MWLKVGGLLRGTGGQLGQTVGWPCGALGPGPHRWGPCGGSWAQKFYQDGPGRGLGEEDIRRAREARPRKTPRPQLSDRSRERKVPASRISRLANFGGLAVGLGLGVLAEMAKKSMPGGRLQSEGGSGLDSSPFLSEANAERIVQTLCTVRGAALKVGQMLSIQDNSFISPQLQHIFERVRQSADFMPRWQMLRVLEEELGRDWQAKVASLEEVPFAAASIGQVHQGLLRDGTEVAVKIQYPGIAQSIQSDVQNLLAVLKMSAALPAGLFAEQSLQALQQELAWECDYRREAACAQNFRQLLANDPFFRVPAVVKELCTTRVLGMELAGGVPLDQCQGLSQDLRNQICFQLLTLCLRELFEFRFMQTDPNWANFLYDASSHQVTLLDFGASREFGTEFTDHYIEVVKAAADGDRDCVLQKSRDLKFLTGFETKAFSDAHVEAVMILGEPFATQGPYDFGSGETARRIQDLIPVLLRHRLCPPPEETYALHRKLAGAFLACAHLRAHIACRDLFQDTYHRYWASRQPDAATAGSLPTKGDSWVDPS
Chain of MATK (human) (P42679 whole entry, looked up): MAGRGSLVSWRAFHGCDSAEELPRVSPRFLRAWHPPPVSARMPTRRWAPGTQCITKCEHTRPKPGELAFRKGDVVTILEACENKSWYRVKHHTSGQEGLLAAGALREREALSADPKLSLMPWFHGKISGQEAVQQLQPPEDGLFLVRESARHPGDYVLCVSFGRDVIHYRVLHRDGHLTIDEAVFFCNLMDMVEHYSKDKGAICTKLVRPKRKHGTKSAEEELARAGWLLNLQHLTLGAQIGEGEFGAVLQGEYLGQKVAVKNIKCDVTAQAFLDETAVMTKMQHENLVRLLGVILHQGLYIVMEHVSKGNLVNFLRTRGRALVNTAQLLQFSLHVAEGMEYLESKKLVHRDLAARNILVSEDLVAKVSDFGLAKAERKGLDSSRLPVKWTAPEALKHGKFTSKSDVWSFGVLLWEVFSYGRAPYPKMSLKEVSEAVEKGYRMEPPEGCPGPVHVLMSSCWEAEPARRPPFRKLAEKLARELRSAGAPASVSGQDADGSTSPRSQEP
Chain of PIM2 (human) (Q9P1W9 whole entry, looked up): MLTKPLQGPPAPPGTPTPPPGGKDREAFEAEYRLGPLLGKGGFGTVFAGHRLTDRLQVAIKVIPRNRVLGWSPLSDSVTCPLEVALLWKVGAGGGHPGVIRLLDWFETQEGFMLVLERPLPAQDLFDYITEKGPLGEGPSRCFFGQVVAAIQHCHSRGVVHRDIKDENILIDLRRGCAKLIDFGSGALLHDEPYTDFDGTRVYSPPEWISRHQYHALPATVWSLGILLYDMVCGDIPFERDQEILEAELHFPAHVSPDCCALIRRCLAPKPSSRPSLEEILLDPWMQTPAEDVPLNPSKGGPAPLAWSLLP
Chain of CDK5 (human) (Q00535 whole entry, looked up): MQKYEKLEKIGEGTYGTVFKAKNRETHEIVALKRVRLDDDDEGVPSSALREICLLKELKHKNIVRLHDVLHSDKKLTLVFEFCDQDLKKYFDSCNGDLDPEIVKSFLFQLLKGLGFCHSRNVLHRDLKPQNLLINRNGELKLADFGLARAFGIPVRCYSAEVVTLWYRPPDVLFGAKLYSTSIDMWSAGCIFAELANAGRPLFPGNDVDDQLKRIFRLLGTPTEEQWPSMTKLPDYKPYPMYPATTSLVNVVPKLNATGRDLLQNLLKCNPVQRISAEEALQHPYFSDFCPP
Chain of PRKCD (human) (Q05655 whole entry, looked up): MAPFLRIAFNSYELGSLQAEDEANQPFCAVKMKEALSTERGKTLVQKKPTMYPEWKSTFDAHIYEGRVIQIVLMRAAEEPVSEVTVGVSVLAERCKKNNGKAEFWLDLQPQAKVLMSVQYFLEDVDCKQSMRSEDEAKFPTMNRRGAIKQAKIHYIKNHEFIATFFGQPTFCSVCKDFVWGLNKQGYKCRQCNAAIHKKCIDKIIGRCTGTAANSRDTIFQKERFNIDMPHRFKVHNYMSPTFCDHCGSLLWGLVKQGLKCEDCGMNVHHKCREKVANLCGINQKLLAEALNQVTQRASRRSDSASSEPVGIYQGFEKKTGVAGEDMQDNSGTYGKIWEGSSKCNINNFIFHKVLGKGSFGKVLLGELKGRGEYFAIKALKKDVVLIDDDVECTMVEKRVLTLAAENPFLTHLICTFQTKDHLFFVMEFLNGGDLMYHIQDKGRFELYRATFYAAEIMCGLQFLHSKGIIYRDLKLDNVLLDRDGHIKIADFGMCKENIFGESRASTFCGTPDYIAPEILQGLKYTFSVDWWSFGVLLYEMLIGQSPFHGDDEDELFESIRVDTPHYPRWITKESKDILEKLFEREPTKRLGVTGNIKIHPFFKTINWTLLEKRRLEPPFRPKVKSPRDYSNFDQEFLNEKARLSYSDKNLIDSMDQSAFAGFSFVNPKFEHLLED
Chain of STK32C (human) (Q86UX6 whole entry, looked up): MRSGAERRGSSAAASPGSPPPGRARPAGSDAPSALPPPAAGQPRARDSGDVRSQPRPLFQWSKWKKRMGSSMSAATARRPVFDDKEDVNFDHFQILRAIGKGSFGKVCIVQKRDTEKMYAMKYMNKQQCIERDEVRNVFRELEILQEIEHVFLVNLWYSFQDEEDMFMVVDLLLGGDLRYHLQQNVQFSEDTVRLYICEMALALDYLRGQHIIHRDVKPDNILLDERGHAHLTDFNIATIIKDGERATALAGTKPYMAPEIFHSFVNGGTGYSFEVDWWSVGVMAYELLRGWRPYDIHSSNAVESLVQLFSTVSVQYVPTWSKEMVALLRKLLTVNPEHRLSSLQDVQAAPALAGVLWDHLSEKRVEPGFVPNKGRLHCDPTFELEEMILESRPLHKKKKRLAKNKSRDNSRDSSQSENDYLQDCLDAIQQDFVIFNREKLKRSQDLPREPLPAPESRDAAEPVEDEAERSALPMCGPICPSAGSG
Chain of EPHA6 (human) (Q9UF33 whole entry, looked up): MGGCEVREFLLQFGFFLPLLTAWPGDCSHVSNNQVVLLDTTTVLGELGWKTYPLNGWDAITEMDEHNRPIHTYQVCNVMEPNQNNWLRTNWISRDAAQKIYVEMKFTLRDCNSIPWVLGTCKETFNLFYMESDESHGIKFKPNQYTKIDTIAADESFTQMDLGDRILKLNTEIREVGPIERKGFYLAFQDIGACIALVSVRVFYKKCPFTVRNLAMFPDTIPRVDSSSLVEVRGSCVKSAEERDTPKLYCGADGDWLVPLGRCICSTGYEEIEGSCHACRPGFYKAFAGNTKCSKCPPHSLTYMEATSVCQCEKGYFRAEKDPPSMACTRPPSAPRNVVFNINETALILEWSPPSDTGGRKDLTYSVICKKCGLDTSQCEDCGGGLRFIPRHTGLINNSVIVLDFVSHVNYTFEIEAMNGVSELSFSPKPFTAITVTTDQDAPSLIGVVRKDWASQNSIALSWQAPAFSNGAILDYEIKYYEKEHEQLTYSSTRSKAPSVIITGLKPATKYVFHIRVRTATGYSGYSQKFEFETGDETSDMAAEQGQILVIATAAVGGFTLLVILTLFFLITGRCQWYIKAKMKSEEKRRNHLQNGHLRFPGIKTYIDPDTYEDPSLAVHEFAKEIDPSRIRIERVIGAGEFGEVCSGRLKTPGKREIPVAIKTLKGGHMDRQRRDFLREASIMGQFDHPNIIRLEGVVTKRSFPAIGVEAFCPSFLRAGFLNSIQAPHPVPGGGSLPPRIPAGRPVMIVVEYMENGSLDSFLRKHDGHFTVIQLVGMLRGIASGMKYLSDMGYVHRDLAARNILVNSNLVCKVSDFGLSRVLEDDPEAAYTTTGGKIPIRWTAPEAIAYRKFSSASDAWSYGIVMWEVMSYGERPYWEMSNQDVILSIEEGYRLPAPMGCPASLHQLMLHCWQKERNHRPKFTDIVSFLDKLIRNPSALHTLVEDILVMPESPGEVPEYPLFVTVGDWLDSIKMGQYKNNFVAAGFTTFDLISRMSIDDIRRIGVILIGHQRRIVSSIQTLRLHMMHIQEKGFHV
Chain of ACVR2A (human) (P27037 whole entry, looked up): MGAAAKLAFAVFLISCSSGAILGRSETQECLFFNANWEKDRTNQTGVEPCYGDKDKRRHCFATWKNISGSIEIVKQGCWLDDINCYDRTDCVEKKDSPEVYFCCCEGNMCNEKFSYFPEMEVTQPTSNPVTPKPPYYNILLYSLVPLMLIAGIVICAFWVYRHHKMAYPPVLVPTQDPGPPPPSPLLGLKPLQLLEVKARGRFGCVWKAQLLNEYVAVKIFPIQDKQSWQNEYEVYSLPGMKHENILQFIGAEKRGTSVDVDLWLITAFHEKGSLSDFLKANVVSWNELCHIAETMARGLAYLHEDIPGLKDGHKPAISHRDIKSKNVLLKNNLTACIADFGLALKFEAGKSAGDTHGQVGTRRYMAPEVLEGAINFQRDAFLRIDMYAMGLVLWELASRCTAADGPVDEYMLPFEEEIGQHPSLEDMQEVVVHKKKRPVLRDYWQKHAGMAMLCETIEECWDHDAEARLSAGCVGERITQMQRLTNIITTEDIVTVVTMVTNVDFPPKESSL
Chain of CAMKK1 (human) (Q8N5S9 whole entry, looked up): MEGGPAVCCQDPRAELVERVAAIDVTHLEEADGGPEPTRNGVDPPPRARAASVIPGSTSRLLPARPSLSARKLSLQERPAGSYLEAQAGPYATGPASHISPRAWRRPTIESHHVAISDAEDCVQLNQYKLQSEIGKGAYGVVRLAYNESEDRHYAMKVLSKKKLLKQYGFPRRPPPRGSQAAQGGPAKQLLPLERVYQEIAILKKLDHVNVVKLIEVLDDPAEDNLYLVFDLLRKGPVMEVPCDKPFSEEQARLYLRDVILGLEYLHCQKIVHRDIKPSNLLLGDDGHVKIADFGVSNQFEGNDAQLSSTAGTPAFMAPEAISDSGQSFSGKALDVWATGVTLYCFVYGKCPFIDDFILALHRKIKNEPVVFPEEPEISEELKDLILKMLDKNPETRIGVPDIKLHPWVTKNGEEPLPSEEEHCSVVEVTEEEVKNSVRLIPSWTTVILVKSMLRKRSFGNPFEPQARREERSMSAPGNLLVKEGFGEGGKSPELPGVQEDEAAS

SMILES	kinase still bound, per cent of control [1]	kinase still bound, per cent of control (ACVR2A (human))	kinase still bound, per cent of control (CDKL5 (human))	kinase still bound, per cent of control (HIPK2 (human))	kinase still bound, per cent of control (TBK1 (human))	kinase still bound, per cent of control (DAPK3 (human))	kinase still bound, per cent of control (MYLK3 (human))	kinase still bound, per cent of control (ROCK1 (human))	kinase still bound, per cent of control (PRKCD (human))	kinase still bound, per cent of control (LATS1 (human))	kinase still bound, per cent of control (CAMK4 (human))	kinase still bound, per cent of control (STK32C (human))	kinase still bound, per cent of control (DCLK1 (human))	kinase still bound, per cent of control (CAMK2D (human))	kinase still bound, per cent of control (AURKC (human))	kinase still bound, per cent of control [2]	kinase still bound, per cent of control (LTK (human))	kinase still bound, per cent of control (PIM2 (human))	kinase still bound, per cent of control (HIPK4 (human))	kinase still bound, per cent of control (FGFR4 (human))	further results
CCc1nc(-c2cccc(C)c2)c(-c2ccnc(NC(=O)c3ccccc3)c2)s1	100%	70%	100%	100%	100%	83%	93%	97%	50%	100%	99%	35%	96%	100%	90%	100%	26%	82%	97%	100%	kinase still bound, per cent of control (NEK4 (human)): 100%; kinase still bound, per cent of control (SNRK (human)): 100%; kinase still bound, per cent of control (CDK16 (human)): 100%; kinase still bound, per cent of control (EPHA5 (human)): 90%; kinase still bound, per cent of control (MAP2K7 (human)): 100%; kinase still bound, per cent of control (CAMKK1 (human)): 100%; kinase still bound, per cent of control (ADCK4 (human)): 2.2%; kinase still bound, per cent of control (CaMK1 (human)): 85%; kinase still bound, per cent of control (SIK3 (human)): 94%; kinase still bound, per cent of control (CDK5 (human)): 100%; kinase still bound, per cent of control (GSK3B (human)): 60%; kinase still bound, per cent of control (ROCK2 (human)): 100%; kinase still bound, per cent of control (MATK (human)): 100%; kinase still bound, per cent of control (MST4 (human)): 100%; kinase still bound, per cent of control (MAP3K1 (human)): 90%; kinase still bound, per cent of control (EPHA6 (human)): 47%; kinase still bound, per cent of control (FLT1 (human)): 31%
CCOc1cc(N2CCC(O)CC2)ccc1Nc1ncc2c(n1)N(C)c1ccccc1C(=O)N2C	100%	100%	100%	100%	100%	100%	100%	100%	100%	100%	100%	100%	0.9%	100%	100%	100%	100%	100%	100%	100%	kinase still bound, per cent of control (PTK2B (human)): 100%; kinase still bound, per cent of control (CDK16 (human)): 100%; kinase still bound, per cent of control (EPHA5 (human)): 100%; kinase still bound, per cent of control (BTK (human)): 100%; kinase still bound, per cent of control (MAPK14 (human)): 100%; kinase still bound, per cent of control (CAMKK1 (human)): 100%; kinase still bound, per cent of control (ADCK4 (human)): 100%; kinase still bound, per cent of control (CaMK1 (human)): 100%; kinase still bound, per cent of control (SIK3 (human)): 100%; kinase still bound, per cent of control (CDK5 (human)): 100%; kinase still bound, per cent of control (GSK3B (human)): 100%; kinase still bound, per cent of control (ROCK2 (human)): 100%; kinase still bound, per cent of control (MATK (human)): 100%; kinase still bound, per cent of control (MST4 (human)): 100%; kinase still bound, per cent of control (MAP3K1 (human)): 100%; kinase still bound, per cent of control (EPHA6 (human)): 100%; kinase still bound, per cent of control (FLT1 (human)): 100%
Cc1cn(-c2cc(C(=O)Nc3ccc(C)c(NC(=O)c4ccno4)c3)cc(C(F)(F)F)c2)cn1	100%	100%	100%	100%	100%	100%	100%	100%	100%	100%	100%	100%	100%	100%	100%	100%	100%	100%	100%	100%	kinase still bound, per cent of control (PTK2B (human)): 100%; kinase still bound, per cent of control (CDK16 (human)): 100%; kinase still bound, per cent of control (EPHA5 (human)): 17%; kinase still bound, per cent of control (BTK (human)): 100%; kinase still bound, per cent of control (MAPK14 (human)): 0.3%; kinase still bound, per cent of control (CAMKK1 (human)): 100%; kinase still bound, per cent of control (ADCK4 (human)): 100%; kinase still bound, per cent of control (CaMK1 (human)): 100%; kinase still bound, per cent of control (SIK3 (human)): 100%; kinase still bound, per cent of control (CDK5 (human)): 100%; kinase still bound, per cent of control (GSK3B (human)): 100%; kinase still bound, per cent of control (ROCK2 (human)): 100%; kinase still bound, per cent of control (MATK (human)): 100%; kinase still bound, per cent of control (MST4 (human)): 100%; kinase still bound, per cent of control (MAP3K1 (human)): 100%; kinase still bound, per cent of control (EPHA6 (human)): 100%; kinase still bound, per cent of control (FLT1 (human)): 100%
CCN(CCO)CCCOc1ccc2c(Nc3cc(CC(=O)Nc4cccc(F)c4)[nH]n3)ncnc2c1	52%	100%	50%	31%	90%	82%	98%	67%	91%	100%	100%	78%	51%	93%	19%	100%	17%	100%	4.5%	100%	kinase still bound, per cent of control (PTK2B (human)): 100%; kinase still bound, per cent of control (NEK4 (human)): 40%; kinase still bound, per cent of control (SNRK (human)): 100%; kinase still bound, per cent of control (BTK (human)): 7.2%; kinase still bound, per cent of control (MAP2K7 (human)): 91%; kinase still bound, per cent of control (MAPK14 (human)): 100%; kinase still bound, per cent of control (CAMKK1 (human)): 71%; kinase still bound, per cent of control (ADCK4 (human)): 83%; kinase still bound, per cent of control (CaMK1 (human)): 69%; kinase still bound, per cent of control (SIK3 (human)): 100%; kinase still bound, per cent of control (CDK5 (human)): 100%; kinase still bound, per cent of control (GSK3B (human)): 100%; kinase still bound, per cent of control (ROCK2 (human)): 66%; kinase still bound, per cent of control (MATK (human)): 71%; kinase still bound, per cent of control (MST4 (human)): 37%; kinase still bound, per cent of control (EPHA6 (human)): 69%; kinase still bound, per cent of control (FLT1 (human)): 1%
